T/C data for 21 compounds are collected here from PubChem BioAssay AID256 (DTP/NCI, 2004).

This assay has as its system CD2F1 mice, L1210 leukemia ip, survival T/C. Briefly: NCI In Vivo Anticancer Drug Screen. Data for tumor model L1210 Leukemia (intraperitoneal) in CD2F1 (CDF1) mice. As to conditions: higher = longer survival. The method in brief: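 Activity against a transplanted murine tumor was judged by comparing the compound group with a vehicle group. The outcome in the treated animals was divided by that in the controls.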

Where [1] appears, read: endpoint: mean survival time, dose: 100.0 mg/kg/injection, schedule: Q04DX002 (ip), vehicle: saline with Tween-80.
[2] abbreviates: endpoint: mean survival time, dose: 200.0 mg/kg/injection, schedule: Q04DX002 (ip), vehicle: saline with Tween-80.
Setting [3] is: endpoint: mean survival time, dose: 400.0 mg/kg/injection, schedule: Q04DX002 (ip), vehicle: saline with Tween-80.
Setting [4] is: endpoint: mean survival time, dose: 100.0 mg/kg/injection, schedule: Q04DX003 (ip), vehicle: saline with Tween-80.
Setting [5] is: endpoint: mean survival time, dose: 200.0 mg/kg/injection, schedule: Q04DX003 (ip), vehicle: saline with Tween-80.
Where [6] appears, read: endpoint: mean survival time, dose: 400.0 mg/kg/injection, schedule: Q04DX003 (ip), vehicle: saline with Tween-80.
Setting [7] is: endpoint: mean survival time, dose: 100.0 mg/kg/injection, schedule: Q01DX009 (ip), vehicle: saline with Tween-80.
Setting [8] is: endpoint: mean survival time, dose: 200.0 mg/kg/injection, schedule: Q01DX009 (ip), vehicle: saline with Tween-80.
Where [9] appears, read: endpoint: mean survival time, dose: 400.0 mg/kg/injection, schedule: Q01DX009 (ip), vehicle: saline with Tween-80.
Setting [10] is: endpoint: mean survival time, dose: 50.0 mg/kg/injection, schedule: Q01DX009 (ip), vehicle: saline with Tween-80.

Where “and” joins values, the source holds several entries; their conditions need not be identical. Equal values may be shown once. Inconclusive results and toxic doses are left out.

On to `Cn1ncc(C#N)c1N`, for which the T/C by setting is: (endpoint: mean survival time, dose: 100.0 mg/kg/injection, schedule: Q01DX001 (ip), vehicle: Klucel (hydroxypropylcellulose) (HPC)) 117 % of control; (endpoint: mean survival time, dose: 200.0 mg/kg/injection, schedule: Q01DX001 (ip), vehicle: Klucel (hydroxypropylcellulose) (HPC)) 102 % of control; (endpoint: mean survival time, dose: 400.0 mg/kg/injection, schedule: Q01DX001 (ip), vehicle: Klucel (hydroxypropylcellulose) (HPC)) 102 % of control.

For the compound `Cc1ccccc1NC(=O)Oc1ccc(C(C)(C)C)cc1`, the T/C is 97 % of control under setting [1], 86 % of control under setting [2] and 89 % of control under setting [3].

As to `CCCCCCC(C)NCCOC(=O)c1ccccc1` (centres undefined), the T/C was 103 % of control (endpoint: mean survival time, dose: 75.0 mg/kg/injection, schedule: Q01DX001 (ip), vehicle: saline); 102 % of control (endpoint: mean survival time, dose: 150.0 mg/kg/injection, schedule: Q01DX001 (ip), vehicle: saline); 97 % of control (endpoint: mean survival time, dose: 300.0 mg/kg/injection, schedule: Q01DX001 (ip), vehicle: saline).

For the compound `CC(=O)NNC(=O)c1ccccc1N=NN(C)C`, the T/C by setting is: (endpoint: mean survival time, dose: 18.75 mg/kg/injection, schedule: Q01DX009 (ip), vehicle: Klucel (hydroxypropylcellulose) (HPC)) 94 % of control and 100 % of control; (endpoint: mean survival time, dose: 37.5 mg/kg/injection, schedule: Q01DX009 (ip), vehicle: Klucel (hydroxypropylcellulose) (HPC)) 102 % of control and 111 % of control; (endpoint: mean survival time, dose: 75.0 mg/kg/injection, schedule: Q01DX009 (ip), vehicle: Klucel (hydroxypropylcellulose) (HPC)) 109 % of control; (endpoint: mean survival time, dose: 150.0 mg/kg/injection, schedule: Q01DX009 (ip), vehicle: Klucel (hydroxypropylcellulose) (HPC)) 105 % of control and 111 % of control.

As for `CCC1(O)C(=O)OCc2c1cc1n(c2=O)Cc2cc3ccc(C(=O)OC)cc3nc2-1` (centres undefined), the T/C reads like this: (endpoint: median survival time, dose: 10.0 mg/kg/injection, schedule: Q04DX002 (ip), vehicle: saline with Tween-80) 107 % of control; (endpoint: median survival time, dose: 20.0 mg/kg/injection, schedule: Q04DX002 (ip), vehicle: saline with Tween-80) 100 % of control; (endpoint: median survival time, dose: 40.0 mg/kg/injection, schedule: Q04DX002 (ip), vehicle: saline with Tween-80) 106 % of control; (endpoint: median survival time, dose: 80.0 mg/kg/injection, schedule: Q04DX002 (ip), vehicle: saline with Tween-80) 107 % of control.

In the case of `CC(=O)NC/C(Cl)=C/Cl`, the T/C is 99 % of control under setting [4], 96 % of control under setting [5] and 88 % of control under setting [6].

Turning to `COC(=O)c1ccc(OCCOc2ccc(C(C)(C)CC(C)(C)C)cc2)c(N)c1`, the T/C (endpoint: mean survival time, dose: 100.0 mg/kg/injection, schedule: Q04DX003 (ip), vehicle: Klucel (hydroxypropylcellulose) (HPC)) is 94 % of control; the T/C (endpoint: mean survival time, dose: 200.0 mg/kg/injection, schedule: Q04DX003 (ip), vehicle: Klucel (hydroxypropylcellulose) (HPC)) is 100 % of control; the T/C (endpoint: mean survival time, dose: 400.0 mg/kg/injection, schedule: Q04DX003 (ip), vehicle: Klucel (hydroxypropylcellulose) (HPC)) is 101 % of control.

Consider `O=[N+]([O-])c1ccc(N2CCOCC2)c([N+](=O)[O-])c1`, for which the T/C under setting [7] is 103 % of control; the T/C under setting [4] was 97 % of control; the T/C under setting [8] is 100 % of control; the T/C under setting [5] was 103 % of control; the T/C under setting [9] is 97 % of control; the T/C under setting [6] is 100 % of control.

With `COc1ccc(NC(=O)Oc2ccccc2C(C)C)cc1`, the T/C is 97 % of control (endpoint: mean survival time, dose: 25.0 mg/kg/injection, schedule: Q01DX009 (ip), vehicle: saline with Tween-80); 107 % of control (endpoint: mean survival time, dose: 25.0 mg/kg/injection, schedule: Q04DX002 (ip), vehicle: saline with Tween-80); 97 % of control under setting [10]; 111 % of control (endpoint: mean survival time, dose: 50.0 mg/kg/injection, schedule: Q04DX002 (ip), vehicle: saline with Tween-80); 97 % of control under setting [7]; 90 % of control and 96 % of control under setting [1]. Also, the T/C under setting [3] was 93 % of control.

`OC1CCCC2OC12` (centres undefined): the T/C runs as follows: (endpoint: mean survival time, dose: 100.0 mg/kg/injection, schedule: Q04DX003 (ip), vehicle: saline) 93 % of control; (endpoint: mean survival time, dose: 200.0 mg/kg/injection, schedule: Q04DX003 (ip), vehicle: saline) 96 % of control; (endpoint: mean survival time, dose: 400.0 mg/kg/injection, schedule: Q04DX003 (ip), vehicle: saline) 93 % of control.

Regarding `O=c1ccn(C2OC(CO)C(O)C2O)c(=O)[n]1[Hg][c]1ccccc1` (centres undefined), the T/C (endpoint: median survival time, dose: 0.79 mg/kg/injection, schedule: Q01DX005 (ip), vehicle: saline) was 116 % of control and 111 % of control; the T/C (endpoint: median survival time, dose: 1.56 mg/kg/injection, schedule: Q01DX005 (ip), vehicle: saline) was 100 % of control; the T/C (endpoint: median survival time, dose: 3.12 mg/kg/injection, schedule: Q01DX005 (ip), vehicle: saline) is 100 % of control and 101 % of control and 103 % of control; the T/C (endpoint: median survival time, dose: 6.25 mg/kg/injection, schedule: Q01DX005 (ip), vehicle: saline) is 100 % of control and 101 % of control and 107 % of control; the T/C (endpoint: median survival time, dose: 12.5 mg/kg/injection, schedule: Q01DX005 (ip), vehicle: saline) was 101 % of control.

Consider `NNC(=S)NC1CC2C=CC1C2` (centres undefined), for which the T/C by setting is: (endpoint: mean survival time, dose: 6.25 mg/kg/injection, schedule: Q04DX003 (ip), vehicle: saline with Tween-80) 95 % of control; (endpoint: mean survival time, dose: 12.5 mg/kg/injection, schedule: Q04DX003 (ip), vehicle: saline with Tween-80) 95 % of control; (endpoint: mean survival time, dose: 25.0 mg/kg/injection, schedule: Q04DX003 (ip), vehicle: saline with Tween-80) 97 % of control.

Turning to `OC1CCCCC1O` (centres undefined), the T/C was 101 % of control under setting [4], 100 % of control under setting [5] and 103 % of control under setting [6].

Regarding `CC(C)CCCC(C)CO[P+](=O)OCC(C)CCCC(C)C` (centres undefined), the T/C by setting is: under setting [1], 103 % of control; under setting [2], 96 % of control; under setting [3], 88 % of control.

As to `CC(=O)C(c1ccccc1)N(C)C(=O)c1ccccc1` (centres undefined), the T/C (endpoint: mean survival time, dose: 100.0 mg/kg/injection, schedule: Q01DX009 (ip), vehicle: saline) is 95 % of control; the T/C (endpoint: mean survival time, dose: 200.0 mg/kg/injection, schedule: Q01DX009 (ip), vehicle: saline) is 94 % of control; the T/C (endpoint: mean survival time, dose: 400.0 mg/kg/injection, schedule: Q01DX009 (ip), vehicle: saline) was 104 % of control.

Regarding `Nc1cc(I)c2cccnc2c1O`, the T/C by setting is: (endpoint: mean survival time, dose: 6.25 mg/kg/injection, schedule: Q01DX009 (ip), vehicle: saline) 96 % of control; (endpoint: mean survival time, dose: 12.5 mg/kg/injection, schedule: Q01DX009 (ip), vehicle: saline) 111 % of control; (endpoint: mean survival time, dose: 25.0 mg/kg/injection, schedule: Q01DX009 (ip), vehicle: saline) 100 % of control; (endpoint: mean survival time, dose: 50.0 mg/kg/injection, schedule: Q01DX009 (ip), vehicle: saline) 108 % of control.

For `COC(=O)c1ccccc1NC(=O)CCl`, the T/C under setting [10] was 96 % of control, the T/C under setting [7] is 98 % of control and the T/C under setting [8] is 94 % of control.

Turning to `CN=C(NC)c1ccc(NC(=O)/C=C\c2ccc(/C=C/C(=O)Nc3ccc(C(=NC)NC)cc3)cc2)cc1`, the T/C runs as follows: (endpoint: median survival time, dose: 1.5 mg/kg/injection, schedule: Q01DX009 (ip), vehicle: Klucel (hydroxypropylcellulose) (HPC)) 112 % of control; (endpoint: median survival time, dose: 3.0 mg/kg/injection, schedule: Q01DX009 (ip), vehicle: Klucel (hydroxypropylcellulose) (HPC)) 124 % of control; (endpoint: median survival time, dose: 3.12 mg/kg/injection, schedule: Q01DX009 (ip), vehicle: Klucel (hydroxypropylcellulose) (HPC)) 151 % of control; (endpoint: median survival time, dose: 6.0 mg/kg/injection, schedule: Q01DX009 (ip), vehicle: Klucel (hydroxypropylcellulose) (HPC)) 181 % of control; (endpoint: median survival time, dose: 6.25 mg/kg/injection, schedule: Q01DX009 (ip), vehicle: Klucel (hydroxypropylcellulose) (HPC)) 186 % of control; (endpoint: median survival time, dose: 12.0 mg/kg/injection, schedule: Q01DX009 (ip), vehicle: Klucel (hydroxypropylcellulose) (HPC)) 124 % of control. Also, where the note is “endpoint: median survival time, dose: 12.5 mg/kg/injection, schedule: Q01DX009 (ip), vehicle: Klucel (hydroxypropylcellulose) (HPC)”, the T/C is 124 % of control.

Turning to `CCc1ccc(C(=O)CCCCl)cc1`, the T/C under setting [7] is 104 % of control, the T/C under setting [8] was 100 % of control and the T/C under setting [9] was 100 % of control.

Take `O=C1C(Cl)=C(c2ccccc2)C(OC2(c3ccccc3)C(Cl)C(=O)C(Cl)C2c2ccccc2)(c2ccccc2)C1Cl` (centres undefined): the T/C runs as follows: under setting [1], 96 % of control; under setting [2], 101 % of control; under setting [3], 96 % of control.

With `O=c1[nH][nH]c2ccccc12`, the T/C under setting [4] is 98 % of control, the T/C under setting [5] was 94 % of control and the T/C under setting [6] was 98 % of control.
